Key:
JAK3 = biological target: T1, JAK3 (Homo sapiens, UniProt P52333); experiment: Cell-based tyrosine phosphorylation of Jak kinases (IP/immunoblot); design: endogenous in cells; host or cells: DU145 and CWR22Pc; conditions: 6 µM, 6 h
T1 sequence (P52333 1-1124): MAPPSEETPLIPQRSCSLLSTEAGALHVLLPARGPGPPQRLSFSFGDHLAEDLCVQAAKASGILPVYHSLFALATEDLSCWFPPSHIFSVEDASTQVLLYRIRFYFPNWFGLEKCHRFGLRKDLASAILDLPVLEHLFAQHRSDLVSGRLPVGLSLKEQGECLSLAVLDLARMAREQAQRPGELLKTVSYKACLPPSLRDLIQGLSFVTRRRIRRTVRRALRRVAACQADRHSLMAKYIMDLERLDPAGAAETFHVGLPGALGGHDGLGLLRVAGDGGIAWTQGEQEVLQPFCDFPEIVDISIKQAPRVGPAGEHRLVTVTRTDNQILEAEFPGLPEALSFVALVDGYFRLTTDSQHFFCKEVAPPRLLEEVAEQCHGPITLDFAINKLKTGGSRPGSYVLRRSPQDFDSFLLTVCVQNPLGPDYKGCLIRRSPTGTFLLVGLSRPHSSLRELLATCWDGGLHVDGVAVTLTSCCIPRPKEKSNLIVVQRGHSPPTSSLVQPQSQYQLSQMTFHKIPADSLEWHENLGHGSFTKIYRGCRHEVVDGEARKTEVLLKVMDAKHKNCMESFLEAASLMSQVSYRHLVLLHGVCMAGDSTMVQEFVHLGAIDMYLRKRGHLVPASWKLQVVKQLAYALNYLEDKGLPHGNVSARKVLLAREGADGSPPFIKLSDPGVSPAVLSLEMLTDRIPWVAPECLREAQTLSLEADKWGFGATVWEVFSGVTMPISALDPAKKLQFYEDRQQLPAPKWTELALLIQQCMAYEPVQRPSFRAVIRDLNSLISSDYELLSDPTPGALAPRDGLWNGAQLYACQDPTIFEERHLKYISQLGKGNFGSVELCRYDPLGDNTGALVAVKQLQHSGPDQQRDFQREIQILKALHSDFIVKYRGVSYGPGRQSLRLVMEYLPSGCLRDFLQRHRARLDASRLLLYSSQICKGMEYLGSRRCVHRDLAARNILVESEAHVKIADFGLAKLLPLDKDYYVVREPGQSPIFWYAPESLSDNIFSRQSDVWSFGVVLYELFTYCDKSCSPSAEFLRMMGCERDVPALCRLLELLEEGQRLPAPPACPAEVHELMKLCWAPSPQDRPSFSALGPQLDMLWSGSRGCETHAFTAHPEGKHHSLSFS
Source text: (§1) Figure 5 Both IST5 and IST5-M suppress dimerization of Stat5 with similar efficacies in prostate cancer cells. (A), IST5 and IST5-M inhibit equally potently dimerization of Stat5 in native-gel-based Stat5 dimerization assay. CWR22Rv1 cells were transfected with STAT5A-eYFP (Stat5 wild type), STAT5A-N642H-eYFP (constitutive activated Stat5 by N642H mutation, as a positive control) or STAT3-eYFP (Stat3 wild type, as a negative control) constructs for 3 days. CWR22Rv1 cells were serum-starved for 16 h, pretreated with vanadate (1 mM) for 2 h, followed by treatment with vehicle, IST5 and IST5-M (1 µM) for 6 h and stimulation with Prl (10 nM) for 1 h. Dimerization of Stat5 was analyzed by detection of the eYFP fluorescence of the native Coomassie gel. (B), IST5 and IST5-M inhibited cytokine-induced dimerization of Stat5 with high efficacy in PC cells. PC-3 cells were co-transfected with pCMV-3Flag-Stat5a, pCMV-3Myc-Stat5a, and pPrlR plasmids. Cells were serum-starved for 16 h, pretreated with IST5, IST5-M or vehicle at indicated concentrations for 2 h, followed by stimulation with Prl (10 nM) for 30 min. Anti-MYC mAb was utilized to immunoprecipitate the MYC-tagged Stat5a and blotted with anti-FLAG mAb or anti-MYC mAb, as indicated. […] (C), densitometric analyses of the Stat5 dimerization data based on co-immunoprecipitations and immunoblotting in (B). […] Prostate cancer cells were treated with IST5 (6 µM) or vehicle for 6 h. Jak1, Jak2, Jak3 and Tyk2 were immunoprecipitated and blotted with anti-phospho-tyrosine, Jak1, Jak2, Jak3 and Tyk2 antibodies. Whole cell lysates (WCL) were immunoblotted for actin. (E), differences in posttranslational modifications were detected between native and recombinant STAT5a using mass spectrometry. Native STAT5a from CWR22Rv1 cells and recombinant STAT5a from E. coli were gel-purified, digested using trypsin, and analyzed by bottom-up mass spectrometry. Native full-length STAT5a (blue) is show with recombinant STAT5A highlighted (red). Sites of acetylation and phosphorylation from the respective sources are noted including two previously published sites of phosphorylation (asterisk).
(§2) Given that IST5 suppresses phosphorylation of Stat5 in PC cells, it is possible that IST5 inhibits the kinase(s) responsible for Stat5 phosphorylation and activation in PC cells. To evaluate if IST5 affects kinase activity in cancer cells, we tested kinase inhibitory activity of IST5 in two custom-tailored panels including 54 relevant kinases (Table 1), including Jak1, Jak2, Jak3, Tyk2, Abl1, Abl2, Lck, Fyn, Src and TrkB/C. In addition, we further tested if IST5 inhibits tyrosine phosphorylation of Jak1, Jak2, Jak3 or Tyk2 using a cell-based assay (Figure 5D), where phosphorylation of the kinase is indicative of enzymatic kinase activity. DU145 and CWR22Rv1 cells were treated with IST5 (6 µM) for 6 h followed by immunoprecipitation of Jak1, Jak2, Jak3 and Tyk2 and immunoblotting with anti-phospho-tyrosine antibody. […] Collectively, these findings indicate that the inhibitory effect of IST5 on Stat5 phosphorylation in cancer cells is not due to inhibition of Jak2 or other key kinases including Jak1, Jak3, Tyk2, Src, Lck, Fyn, TrkB/C, Abl1 or Abl2 (Table 1, Figure 5D).
(§3) Cell pellets were solubilized in the lysis buffer (10 mM Tris-HCl (pH 7.6), 5 mM EDTA, 50 mM sodium chloride, 30 mM sodium pyrophosphate, 50 mM sodium fluoride, 1 mM sodium orthovanadate, 1% Triton X-100, 1 mM phenylmethylsulfonyl fluoride, 5 µg/mL aprotinin, 1 µg/mL pepstatin A and 2 µg/mL leupeptin), and protein concentrations of clarified cell lysates were determined by a simplified Bradford method (Bio-Rad, Hercules, CA, USA). The whole cell lysates were immunoprecipitated with polyclonal antibodies (Table S1) followed by incubation with protein A-Sepharose beads (GE Healthcare, Chicago, IL, USA). […]

TYK2 = TYK2 (Homo sapiens, UniProt P29597); experiment: as above; design: endogenous in cells; host or cells: DU145 and CWR22Pc; conditions: 6 µM, 6 h
Chain of TYK2 (P29597 whole entry): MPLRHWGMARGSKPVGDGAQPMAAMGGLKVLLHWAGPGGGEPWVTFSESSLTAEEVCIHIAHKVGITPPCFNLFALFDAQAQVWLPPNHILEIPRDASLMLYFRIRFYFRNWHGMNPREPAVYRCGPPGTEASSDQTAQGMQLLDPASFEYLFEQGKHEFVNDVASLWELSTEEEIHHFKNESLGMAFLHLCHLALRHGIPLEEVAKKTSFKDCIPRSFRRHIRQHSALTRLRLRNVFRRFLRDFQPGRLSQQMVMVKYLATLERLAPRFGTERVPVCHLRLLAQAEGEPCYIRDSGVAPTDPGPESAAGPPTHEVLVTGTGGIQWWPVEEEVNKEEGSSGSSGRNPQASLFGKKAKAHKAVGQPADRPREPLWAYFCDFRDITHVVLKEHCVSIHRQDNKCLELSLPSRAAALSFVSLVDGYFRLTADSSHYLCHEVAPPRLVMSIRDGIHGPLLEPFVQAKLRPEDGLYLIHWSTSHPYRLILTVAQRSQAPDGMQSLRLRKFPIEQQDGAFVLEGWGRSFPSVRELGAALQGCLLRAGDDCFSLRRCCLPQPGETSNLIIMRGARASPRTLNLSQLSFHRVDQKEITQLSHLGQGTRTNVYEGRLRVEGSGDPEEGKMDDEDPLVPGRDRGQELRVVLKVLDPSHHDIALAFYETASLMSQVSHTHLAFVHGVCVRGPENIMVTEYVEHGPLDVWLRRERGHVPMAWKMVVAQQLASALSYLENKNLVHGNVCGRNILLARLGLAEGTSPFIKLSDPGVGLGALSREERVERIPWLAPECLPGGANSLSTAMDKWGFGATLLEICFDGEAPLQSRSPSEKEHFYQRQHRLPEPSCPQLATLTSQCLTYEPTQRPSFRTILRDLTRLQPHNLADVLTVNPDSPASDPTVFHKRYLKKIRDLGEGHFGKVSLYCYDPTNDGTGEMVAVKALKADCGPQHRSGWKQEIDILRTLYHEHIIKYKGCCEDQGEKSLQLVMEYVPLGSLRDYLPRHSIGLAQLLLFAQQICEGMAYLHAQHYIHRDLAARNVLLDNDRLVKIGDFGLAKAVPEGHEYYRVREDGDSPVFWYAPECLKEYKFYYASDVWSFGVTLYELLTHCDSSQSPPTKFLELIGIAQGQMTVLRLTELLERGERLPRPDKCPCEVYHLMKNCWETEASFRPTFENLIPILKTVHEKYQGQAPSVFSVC
Source text: as §1, §2, §3

O=P(O)(O)OCC1OC(n2cnc3c(NCc4ccccc4)ncnc32)C(O)C1O (stereo not shown) [IST5]
did not alter: phosphorylation of Jak3 (JAK3; CWR22Pc cells) | phosphorylation of Jak3 (JAK3; DU145 cells) | phosphorylation of Tyk2 (TYK2; CWR22Pc cells) | phosphorylation of Tyk2 (TYK2; DU145 cells)
